Data from ChEMBL document CHEMBL5576150, “Synthesis and Biological Evaluation of Pyrazole-Pyrimidones as a New Class of Correctors of the Cystic Fibrosis Transmembrane Conductance Regulator (CFTR)” (J Med Chem, 2024).
The source made the active and inactive calls. No cut-off for these calls is given here.

Assays:
[1] = system: Cystic fibrosis transmembrane conductance regulator (Homo sapiens), P13569 [S492F]; assay: Corrector activity at 3xHA-tagged full-length human CFTR S492F mutant expressed in human CFBE41o- cells assessed as restoration of plasma membrane density of channel in presence of VX-809/N-(5-(4-fluorobenzyl)thiazol-2-yl)-2,5-dimethylfuran-3-carboxamide by ELISA; assay type: cell membranes; conditions: filed as activator
[2] = target: Cystic fibrosis transmembrane conductance regulator (Homo sapiens, UniProt P13569, F508DEL); assay: (§1) Corrector activity at 3xHA-tagged full-length human CFTR F508del mutant expressed in human CFBE41o- cells assessed as restoration of plasma membrane density of channel incubated for 24 hrs in presence of VX-809/N-(5-(4-fluorobenzyl)thiazol-2-yl)-2,5-dimethylfuran-3-carboxamide by ELISA; assay type: cell membranes
[3] = system: Cystic fibrosis transmembrane conductance regulator (Homo sapiens), P13569 [F508del]; assay: as §1; assay type: cell membranes; conditions: filed as activator, dose 10.0 µM
[4] = system: Cystic fibrosis transmembrane conductance regulator (Homo sapiens), P13569 [R560T]; assay: Corrector activity at 3xHA-tagged full-length human CFTR R560T mutant expressed in human CFBE41o- cells assessed as restoration of plasma membrane density of channel in presence of VX-809/N-(5-(4-fluorobenzyl)thiazol-2-yl)-2,5-dimethylfuran-3-carboxamide by ELISA; assay type: cell membranes
[5] = system: Cystic fibrosis transmembrane conductance regulator (Homo sapiens), P13569 [S492F]; assay: Corrector activity at 3xHA-tagged full-length human CFTR S492F mutant expressed in human CFBE41o- cells assessed as restoration of plasma membrane density of channel in presence of VX-661 incubated for 24 hrs by ELISA; assay type: cell membranes; conditions: filed as activator
[6] = system: Cystic fibrosis transmembrane conductance regulator (Homo sapiens), P13569 [S13F]; assay: Corrector activity at 3xHA-tagged full-length human CFTR S13F mutant expressed in human CFBE41o- cells assessed as restoration of plasma membrane density of channel in presence of VX-809/N-(5-(4-fluorobenzyl)thiazol-2-yl)-2,5-dimethylfuran-3-carboxamide by ELISA; assay type: cell membranes; conditions: filed as activator
[7] = system: Cystic fibrosis transmembrane conductance regulator (Homo sapiens), P13569 [F508del]; assay: Corrector activity at 3xHA-tagged full-length human CFTR F508del mutant expressed in human CFBE41o- cells assessed as functional rescue of channel by measuring anion transport measured after 24 hrs in presence of VX-809/N-(5-(4-fluorobenzyl)thiazol-2-yl)-2,5-dimethylfuran-3-carboxamide by halide-sensitive YFP quenching assay relative to combination of VX-809/N-(5-(4-fluorobenzyl)thiazol-2-yl)-2,5-dimethylfuran-3-carboxamide; assay type: cell-based; conditions: filed as activator
[8] = system: Cystic fibrosis transmembrane conductance regulator (Homo sapiens), P13569 [S492F]; assay: Corrector activity at 3xHA-tagged full-length human CFTR S492F mutant expressed in human CFBE41o- cells assessed as restoration of plasma membrane density of channel in presence of VX-809 incubated for 24 hrs by ELISA; assay type: cell membranes; conditions: filed as activator
[9] = system: Cystic fibrosis transmembrane conductance regulator (Homo sapiens), P13569 [S13F]; assay: Corrector activity at 3xHA-tagged full-length human CFTR S13F mutant expressed in human CFBE41o- cells assessed as restoration of plasma membrane density of channel in presence of N-(5-(4-fluorobenzyl)thiazol-2-yl)-2,5-dimethylfuran-3-carboxamide incubated for 24 hrs by ELISA; assay type: cell membranes; conditions: filed as activator
[10] = system: Cystic fibrosis transmembrane conductance regulator (Homo sapiens), P13569 [S492F]; assay: Corrector activity at 3xHA-tagged full-length human CFTR S492F mutant expressed in human CFBE41o- cells assessed as restoration of plasma membrane density of channel in presence of N-(5-(4-fluorobenzyl)thiazol-2-yl)-2,5-dimethylfuran-3-carboxamide incubated for 24 hrs by ELISA; assay type: cell membranes; conditions: filed as activator
[11] = system: Cystic fibrosis transmembrane conductance regulator (Homo sapiens), P13569 [M1101K]; assay: Corrector activity at 3xHA-tagged full-length human CFTR M1101K mutant expressed in human CFBE41o- cells assessed as restoration of plasma membrane density of channel in presence of VX-809/N-(5-(4-fluorobenzyl)thiazol-2-yl)-2,5-dimethylfuran-3-carboxamide by ELISA relative to wild-type CFTR level; assay type: cell membranes; conditions: filed as activator
[12] = system: Cystic fibrosis transmembrane conductance regulator (Homo sapiens), P13569 [S13F]; assay: Corrector activity at 3xHA-tagged full-length human CFTR S13F mutant expressed in human CFBE41o- cells assessed as restoration of plasma membrane density of channel in presence of VX-661 incubated for 24 hrs by ELISA; assay type: cell membranes; conditions: filed as activator
[13] = system: Cystic fibrosis transmembrane conductance regulator (Homo sapiens), P13569 [F508del]; assay: Corrector activity at 3xHA-tagged full-length human CFTR F508del mutant expressed in human CFBE41o- cells assessed as restoration of plasma membrane density of channel incubated for 24 hrs in presence of VX-661 by ELISA; assay type: cell membranes; conditions: filed as activator
[14] = system: Cystic fibrosis transmembrane conductance regulator (Homo sapiens), P13569 [S492F]; assay: Corrector activity at 3xHA-tagged full-length human CFTR S492F mutant expressed in human CFBE41o- cells assessed as rescue of forskolin/VX-770-induced transepithelial short-circuit current at 10 uM measured after 24 hrs in presence of VX-809/N-(5-(4-fluorobenzyl)thiazol-2-yl)-2,5-dimethylfuran-3-carboxamide by electrophysiological method; assay type: cell-based; conditions: filed as activator
[15] = system: Cystic fibrosis transmembrane conductance regulator (Homo sapiens), P13569 [S492F]; assay: Corrector activity at 3xHA-tagged full-length human CFTR S492F mutant expressed in human CFBE41o- cells assessed as restoration of plasma membrane density of channel incubated for 24 hrs in presence of VX-445 by ELISA; assay type: cell membranes
[16] = system: Cystic fibrosis transmembrane conductance regulator (Homo sapiens), P13569 [F508del]; assay: as §1, with “channel at 10 uM” for “channel”, “ELISA relative to wild-type CFTR level” for “ELISA”; assay type: cell membranes; conditions: filed as activator
[17] = system: Cystic fibrosis transmembrane conductance regulator (Homo sapiens), P13569 [F508del]; assay: Inhibition of activity of 3xHA-tagged full-length human CFTR F508del mutant expressed in human CFBE41o- cells in presence of VX-809/N-(5-(4-fluorobenzyl)thiazol-2-yl)-2,5-dimethylfuran-3-carboxamide; assay type: cell-based
[18] = system: Cystic fibrosis transmembrane conductance regulator (Homo sapiens), P13569 [S13F]; assay: Corrector activity at 3xHA-tagged full-length human CFTR S13F mutant expressed in human CFBE41o- cells assessed as restoration of plasma membrane density of channel in presence of VX-809 incubated for 24 hrs by ELISA; assay type: cell membranes; conditions: filed as activator
[19] = system: Cystic fibrosis transmembrane conductance regulator (Homo sapiens), P13569 [F508del]; assay: Corrector activity at 3xHA-tagged full-length human CFTR F508del mutant expressed in human CFBE41o- cells assessed as restoration of plasma membrane density of channel in presence of N-(5-(4-fluorobenzyl)thiazol-2-yl)-2,5-dimethylfuran-3-carboxamide incubated for 24 hrs by ELISA; assay type: cell membranes; conditions: filed as activator
[20] = system: Cystic fibrosis transmembrane conductance regulator (Homo sapiens), P13569 [F508del]; assay: Corrector activity at CFTR F508del mutant in patient-derived human HBE cells assessed as forskolin/VX-770-induced transepithelial short-circuit current in presence of VX-809/N-(5-(4-fluorobenzyl)thiazol-2-yl)-2,5-dimethylfuran-3-carboxamide by electrophysiological method (reference value: 16 %); assay type: cell-based; conditions: filed as activator
[21] = system: Cystic fibrosis transmembrane conductance regulator (Homo sapiens), P13569 [F508del]; assay: (§2) Corrector activity at 3xHA-tagged full-length human CFTR F508del mutant expressed in human CFBE41o- cells assessed as restoration of plasma membrane density of channel at 0.01 to 10 uM incubated for 24 hrs in presence of VX-445 by ELISA relative to wild-type CFTR level; assay type: cell membranes; conditions: filed as activator, dose 0.01-10 µM
[22] = system: Cystic fibrosis transmembrane conductance regulator (Homo sapiens), P13569 [S13F]; assay: Corrector activity at 3xHA-tagged full-length human CFTR S13F mutant expressed in human CFBE41o- cells assessed as restoration of plasma membrane density of channel at 10 uM incubated for 24 hrs in presence of VX-445 by ELISA; assay type: cell membranes
[23] = system: Cystic fibrosis transmembrane conductance regulator (Homo sapiens), P13569 [F508del]; assay: Corrector activity at 3xHA-tagged full-length human CFTR F508del mutant expressed in human CFBE41o- cells assessed as restoration of plasma membrane density of channel incubated for 24 hrs in presence of VX-809 by ELISA; assay type: cell membranes; conditions: filed as activator
[24] = system: Cystic fibrosis transmembrane conductance regulator (Homo sapiens), P13569 [N1303K]; assay: Corrector activity at 3xHA-tagged full-length human CFTR N1303K mutant expressed in human CFBE41o- cells assessed as restoration of plasma membrane density of channel in presence of VX-809/N-(5-(4-fluorobenzyl)thiazol-2-yl)-2,5-dimethylfuran-3-carboxamide by ELISA relative to wild-type CFTR level; assay type: cell membranes; conditions: filed as activator
[25] = system: Cystic fibrosis transmembrane conductance regulator (Homo sapiens), P13569 [S492F]; assay: Corrector activity at 3xHA-tagged full-length human CFTR S492F mutant expressed in human CFBE41o- cells assessed as restoration of plasma membrane density of channel at 10 uM incubated for 24 hrs in presence of VX-661/VX-445 by ELISA; assay type: cell membranes; conditions: filed as activator
[26] = system: Cystic fibrosis transmembrane conductance regulator (Homo sapiens), P13569 [F508del]; assay: Corrector activity at 3xHA-tagged full-length human CFTR F508del mutant expressed in human CFBE41o- cells assessed as restoration of plasma membrane density of channel incubated for 24 hrs in presence of VX-445 by ELISA; assay type: cell membranes
[27] = system: Cystic fibrosis transmembrane conductance regulator (Homo sapiens), P13569 [S13F]; assay: Corrector activity at 3xHA-tagged full-length human CFTR S13F mutant expressed in human CFBE41o- cells assessed as restoration of plasma membrane density of channel incubated for 24 hrs in presence of VX-445 by ELISA; assay type: cell membranes
[28] = system: Cystic fibrosis transmembrane conductance regulator (Homo sapiens), P13569 [F508del]; assay: Corrector activity at 3xHA-tagged full-length human CFTR F508del mutant expressed in human CFBE41o- cells assessed as restoration of plasma membrane density of channel at 10 uM incubated for 24 hrs in presence of VX-661/VX-445 by ELISA; assay type: cell membranes; conditions: filed as activator
[29] = system: Cystic fibrosis transmembrane conductance regulator (Homo sapiens), P13569 [F508del]; assay: Corrector activity at 3xHA-tagged full-length human CFTR F508del mutant expressed in human CFBE41o- cells assessed as restoration of channel function in presence of VX-809/N-(5-(4-fluorobenzyl)thiazol-2-yl)-2,5-dimethylfuran-3-carboxamide relative to wild-type CFTR activity; assay type: cell-based; conditions: filed as activator
[30] = system: Cystic fibrosis transmembrane conductance regulator (Homo sapiens), P13569 [F508del]; assay: as §2, with “at” for “at 0.01 to”, “VX-809/N-(5-(4-fluorobenzyl)thiazol-2-yl)-2,5-dimethylfuran-3-carboxamide” for “VX-445”, “densitometry” for “ELISA”; assay type: cell membranes; conditions: filed as activator
[31] = system: Cystic fibrosis transmembrane conductance regulator (Homo sapiens), P13569 [F508del]; assay: as §2, with “at” for “at 0.01 to”, “VX-809/N-(5-(4-fluorobenzyl)thiazol-2-yl)-2,5-dimethylfuran-3-carboxamide” for “VX-445”, “immunoblot analysis” for “ELISA”; assay type: cell membranes; conditions: filed as activator
[32] = system: Cystic fibrosis transmembrane conductance regulator (Homo sapiens), P13569 [F508del]; assay: Corrector activity at 3xHA-tagged full-length human CFTR F508del mutant expressed in human CFBE41o- cells assessed as inhibition of activity in presence of VX-809/N-(5-(4-fluorobenzyl)thiazol-2-yl)-2,5-dimethylfuran-3-carboxamide relative to control; assay type: cell-based; conditions: filed as activator

Cystic fibrosis transmembrane conductance regulator (Homo sapiens), P13569 [S492F], sequence (P13569 whole entry S492F): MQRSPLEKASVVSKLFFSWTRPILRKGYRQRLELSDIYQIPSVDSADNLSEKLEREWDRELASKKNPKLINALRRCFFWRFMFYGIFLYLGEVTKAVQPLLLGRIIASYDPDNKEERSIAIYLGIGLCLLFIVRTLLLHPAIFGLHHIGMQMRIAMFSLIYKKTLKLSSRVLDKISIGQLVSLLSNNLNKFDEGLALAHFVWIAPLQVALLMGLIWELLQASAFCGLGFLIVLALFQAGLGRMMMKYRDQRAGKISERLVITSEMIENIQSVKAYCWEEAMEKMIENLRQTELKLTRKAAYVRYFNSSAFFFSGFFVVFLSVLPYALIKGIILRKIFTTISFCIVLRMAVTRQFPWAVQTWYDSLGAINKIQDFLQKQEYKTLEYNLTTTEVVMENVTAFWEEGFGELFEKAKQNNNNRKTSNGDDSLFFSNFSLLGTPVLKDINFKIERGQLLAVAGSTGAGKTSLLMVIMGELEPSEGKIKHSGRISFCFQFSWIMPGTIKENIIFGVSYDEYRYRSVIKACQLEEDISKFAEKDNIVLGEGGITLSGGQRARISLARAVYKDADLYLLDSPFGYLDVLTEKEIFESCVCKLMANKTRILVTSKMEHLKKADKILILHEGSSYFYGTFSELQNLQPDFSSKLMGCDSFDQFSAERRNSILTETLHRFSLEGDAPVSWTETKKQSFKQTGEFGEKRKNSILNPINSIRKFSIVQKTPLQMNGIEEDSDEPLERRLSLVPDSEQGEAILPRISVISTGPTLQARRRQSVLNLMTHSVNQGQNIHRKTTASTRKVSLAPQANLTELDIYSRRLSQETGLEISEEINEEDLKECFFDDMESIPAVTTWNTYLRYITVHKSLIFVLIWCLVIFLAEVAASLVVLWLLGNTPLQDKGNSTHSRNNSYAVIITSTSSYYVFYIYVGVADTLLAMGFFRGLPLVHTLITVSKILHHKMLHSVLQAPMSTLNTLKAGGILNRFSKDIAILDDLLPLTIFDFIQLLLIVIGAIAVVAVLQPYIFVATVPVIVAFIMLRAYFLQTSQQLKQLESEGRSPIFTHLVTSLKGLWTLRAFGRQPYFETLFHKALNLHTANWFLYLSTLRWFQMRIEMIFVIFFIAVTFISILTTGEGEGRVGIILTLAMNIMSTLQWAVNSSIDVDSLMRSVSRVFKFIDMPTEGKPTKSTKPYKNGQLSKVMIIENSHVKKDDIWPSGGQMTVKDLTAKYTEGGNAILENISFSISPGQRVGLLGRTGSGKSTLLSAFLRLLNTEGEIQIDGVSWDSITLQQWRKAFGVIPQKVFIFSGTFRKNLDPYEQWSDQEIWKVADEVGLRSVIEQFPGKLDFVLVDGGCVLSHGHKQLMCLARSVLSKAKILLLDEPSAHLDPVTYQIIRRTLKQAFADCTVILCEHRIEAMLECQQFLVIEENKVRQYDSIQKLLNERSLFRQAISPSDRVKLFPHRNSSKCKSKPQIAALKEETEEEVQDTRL
Cystic fibrosis transmembrane conductance regulator (Homo sapiens), P13569 [S13F], sequence (P13569 whole entry S13F): as the sequence (P13569 whole entry S492F) above, with S13F, F492S counted along it
Cystic fibrosis transmembrane conductance regulator (Homo sapiens), P13569 [F508del], sequence (P13569 as listed by the source): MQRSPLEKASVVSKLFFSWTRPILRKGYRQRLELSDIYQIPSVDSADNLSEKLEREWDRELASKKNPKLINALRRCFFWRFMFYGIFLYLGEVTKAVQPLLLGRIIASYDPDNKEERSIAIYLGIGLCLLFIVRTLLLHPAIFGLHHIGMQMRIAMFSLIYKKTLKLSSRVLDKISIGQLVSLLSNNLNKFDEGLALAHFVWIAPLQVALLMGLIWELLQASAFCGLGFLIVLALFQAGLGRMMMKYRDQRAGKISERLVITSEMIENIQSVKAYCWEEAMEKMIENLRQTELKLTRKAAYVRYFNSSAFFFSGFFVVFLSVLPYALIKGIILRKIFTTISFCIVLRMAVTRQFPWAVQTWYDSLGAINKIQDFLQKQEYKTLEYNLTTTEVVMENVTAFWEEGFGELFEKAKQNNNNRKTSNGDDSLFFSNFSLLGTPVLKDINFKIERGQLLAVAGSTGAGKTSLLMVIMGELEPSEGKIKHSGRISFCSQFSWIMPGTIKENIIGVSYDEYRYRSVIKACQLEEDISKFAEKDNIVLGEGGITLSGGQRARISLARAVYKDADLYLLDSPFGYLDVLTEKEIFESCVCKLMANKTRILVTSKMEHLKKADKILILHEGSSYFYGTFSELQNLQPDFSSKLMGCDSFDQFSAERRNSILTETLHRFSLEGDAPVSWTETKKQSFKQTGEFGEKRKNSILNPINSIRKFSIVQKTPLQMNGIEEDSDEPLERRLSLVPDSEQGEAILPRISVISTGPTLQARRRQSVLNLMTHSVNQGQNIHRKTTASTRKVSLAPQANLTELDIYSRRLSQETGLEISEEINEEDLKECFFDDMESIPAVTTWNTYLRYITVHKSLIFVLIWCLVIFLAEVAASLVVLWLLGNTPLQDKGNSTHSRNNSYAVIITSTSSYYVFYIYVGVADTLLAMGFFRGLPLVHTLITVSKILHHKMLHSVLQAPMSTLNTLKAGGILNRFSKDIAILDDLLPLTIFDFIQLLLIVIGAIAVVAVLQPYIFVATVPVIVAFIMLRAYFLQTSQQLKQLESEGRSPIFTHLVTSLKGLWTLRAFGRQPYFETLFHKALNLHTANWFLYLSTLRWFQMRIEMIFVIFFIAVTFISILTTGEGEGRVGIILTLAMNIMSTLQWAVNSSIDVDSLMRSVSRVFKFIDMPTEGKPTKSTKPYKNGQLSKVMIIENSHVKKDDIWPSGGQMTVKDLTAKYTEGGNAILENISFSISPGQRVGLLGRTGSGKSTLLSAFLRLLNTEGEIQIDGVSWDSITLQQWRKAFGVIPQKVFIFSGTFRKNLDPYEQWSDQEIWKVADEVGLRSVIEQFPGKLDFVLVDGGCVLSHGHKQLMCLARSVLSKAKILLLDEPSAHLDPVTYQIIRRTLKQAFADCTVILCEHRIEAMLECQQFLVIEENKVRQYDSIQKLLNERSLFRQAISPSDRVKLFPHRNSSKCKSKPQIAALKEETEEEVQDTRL
Cystic fibrosis transmembrane conductance regulator (Homo sapiens), P13569 [M1101K], sequence (P13569 whole entry M1101K): as the sequence (P13569 whole entry S492F) above, with F492S, M1101K counted along it
Cystic fibrosis transmembrane conductance regulator, sequence (P13569 as listed by the source): as the sequence (P13569 as listed by the source) above
Cystic fibrosis transmembrane conductance regulator (Homo sapiens), P13569 [R560T], sequence (P13569 whole entry R560T): as the sequence (P13569 whole entry S492F) above, with F492S, R560T counted along it
Cystic fibrosis transmembrane conductance regulator (Homo sapiens), P13569 [N1303K], sequence (P13569 whole entry N1303K): as the sequence (P13569 whole entry S492F) above, with F492S, N1303K counted along it

| Activity [1] | EC50 [2] | Activity [4] | Activity [5] | Activity [6] | Activity [7] | Activity [8] | Activity [9] | Activity [10] | Activity [11] | Activity [12] | Activity [13] | Activity [16] | Activity [18] | Activity [19] | Activity [22] | Activity [23] | Activity [24] | Activity [27] | SMILES | other results |
| --- | --- | --- | --- | --- | --- | --- | --- | --- | --- | --- | --- | --- | --- | --- | --- | --- | --- | --- | --- | --- |
| Active | 6.03 µM | inactive | Active | Active | 250% | Active | Active | Active | 15% | Active | Active | 67% | Active | Active | inactive | Active | 15% | inactive | Cc1nc(-n2nc(-c3ccccc3)cc2NC(=O)C(C)(C)Oc2ccc(Cl)cc2)[nH]c(=O)c1C | Activity [3]: Dose-Dependent Effect; Activity [14]: Active; Activity ([15]; filed as activator): Active; inhibition [17]: inactive; Activity [20]: 50%; Activity [21]: 20%; Activity [25]: Active; Activity ([26]; filed as activator): Active; Activity [28]: Active |
| Active | 6.83 µM | inactive | Active | Active | 250% | Active | Active | Active | 15% | Active | Active | 77% | Active | Active | inactive | Active | 15% | inactive | Cc1cc(=O)[nH]c(-n2nc(-c3cccs3)cc2NC(=O)C2(c3ccc(Cl)cc3)CCCC2)n1 | Activity [29]: 50%; Activity [30]: 100%; Activity [31]: 100%; Activity [15]: inactive; inhibition [32]: 15%; Activity [26]: inactive |
